Source: the NIST ThermoML archive (doi:10.1021/je020125e)
Where “and” joins values, the source holds several entries; their conditions need not be identical. Equal entries are not always repeated.

Settings: 101.33 kPa, Liquid, Hot wire method

CCCC(C)CC (stereo unspecified) [3-methylhexane]
Settings | thermal conductivity [W/m/K] | thermal diffusivity
256.62 K | 0.1236 | –
257 K | 0.1233 | –
257.38 K | 0.1231 | –
257.59 K | – | 8.59e-08 m2/s
258.63 K | – | 8.5e-08 m2/s
259.54 K | – | 8.43e-08 m2/s
269.72 K | 0.1196 | –
270.11 K | 0.1193 | –
270.44 K | 0.1191 | –
270.7 K | – | 8.14e-08 m2/s
271.73 K | – | 8.1e-08 m2/s
272.58 K | – | 8.04e-08 m2/s
284.9 K | 0.115 | –
285.32 K | 0.1148 | –
285.66 K | 0.1146 | –
285.92 K | – | 7.81e-08 m2/s
287.01 K | – | 7.78e-08 m2/s
287.89 K | – | 7.72e-08 m2/s
296.55 K | 0.1113 | –
296.95 K | 0.1113 | –
297.35 K | 0.111 | –
297.62 K | – | 7.5e-08 m2/s
298.65 K | – | 7.47e-08 m2/s
299.67 K | – | 7.41e-08 m2/s
311.54 K | 0.1073 | –
311.97 K | 0.107 | –
312.34 K | 0.1068 | –
312.6 K | – | 7.22e-08 m2/s
313.66 K | – | 7.08e-08 m2/s
314.6 K | – | 7.07e-08 m2/s
321.52 K | 0.1046 | –
321.98 K | 0.1042 | –
322.34 K | 0.104 | –
322.62 K | – | 7.02e-08 m2/s
323.75 K | – | 6.94e-08 m2/s
324.66 K | – | 6.86e-08 m2/s and 6.87e-08 m2/s
332.24 K | 0.1017 | –
332.69 K | 0.1013 | –
333.09 K | 0.1011 | –
333.3 K | – | 6.69e-08 m2/s
334.41 K | – | 6.61e-08 m2/s
335.4 K | – | 6.61e-08 m2/s
343.42 K | 0.09857 | –
343.89 K | 0.09831 | –
344.28 K | 0.09813 | –
344.3 K | 0.09807 | –
344.46 K | – | 6.42e-08 m2/s
345.61 K | – | 6.37e-08 m2/s
346.56 K | – | 6.32e-08 m2/s
346.62 K | – | 6.37e-08 m2/s

CCC(C)C(C)C (stereo unspecified) [2,3-dimethylpentane]
Settings | thermal conductivity | thermal diffusivity
256.3 K | 0.1178 W/m/K | –
256.7 K | 0.1175 W/m/K | –
256.93 K | – | 8.19e-08 m2/s
256.95 K | 0.1173 W/m/K | –
257.7 K | – | 8.09e-08 m2/s
258.3 K | – | 8.05e-08 m2/s
269.57 K | 0.114 W/m/K | –
269.87 K | 0.1137 W/m/K | –
270.12 K | 0.1135 W/m/K | –
270.24 K | – | 7.8e-08 m2/s
270.9 K | – | 7.79e-08 m2/s
271.49 K | – | 7.72e-08 m2/s
284.74 K | 0.1097 W/m/K | –
285.02 K | 0.1093 W/m/K | –
285.27 K | 0.1092 W/m/K | –
285.38 K | – | 7.51e-08 m2/s
286.04 K | – | 7.37e-08 m2/s
286.63 K | – | 7.35e-08 m2/s
296.31 K | 0.1057 W/m/K | –
296.36 K | 0.1063 W/m/K | –
296.65 K | 0.106 W/m/K | –
297 K | – | 7.16e-08 m2/s
297.68 K | – | 7.1e-08 m2/s
298.28 K | – | 7.02e-08 m2/s
311.34 K | 0.1022 W/m/K | –
311.66 K | 0.102 W/m/K | –
311.93 K | 0.1018 W/m/K | –
311.97 K | – | 6.79e-08 m2/s
312.7 K | – | 6.77e-08 m2/s
313.33 K | – | 6.76e-08 m2/s
321.3 K | 0.09959 W/m/K | –
321.59 K | 0.09937 W/m/K | –
321.85 K | 0.09916 W/m/K | –
321.91 K | – | 6.53e-08 m2/s
322.58 K | – | 6.46e-08 m2/s
323.18 K | – | 6.43e-08 m2/s
331.96 K | 0.097 W/m/K | –
332.21 K | 0.09651 W/m/K and 0.09662 W/m/K | –
332.5 K | – | 6.07e-08 m2/s
333.06 K | – | 5.99e-08 m2/s and 6e-08 m2/s
343.12 K | 0.09411 W/m/K | –
343.36 K | 0.09373 W/m/K | –
343.59 K | 0.09353 W/m/K | –
343.64 K | – | 5.78e-08 m2/s
344.2 K | – | 5.72e-08 m2/s
344.73 K | – | 5.72e-08 m2/s
